Solubility data for 15 compounds are collected here from ChEMBL document CHEMBL1134968, “Prodrug and covalent linker strategies for the solubilization of dual-action antioxidants/iron chelators” (Bioorg Med Chem Lett, 2002).

≈ marks a conversion by molar mass, not a printed value. Some results are limits rather than exact numbers.

Data set [1] in a line: Compound was tested for its solubility in water. It is filed as ADME. The conditions noted are these: read-out: S.
A short description of data set [2]: Compound was tested for its solubility in DMSO/H2O in a ratio of (1:9). It is filed as ADME. The conditions noted are these: DMSO/H2O (1:9); read-out: S.

Turning to `Cc1c(O)c(=O)ccn1CCOCCOCCOCCOCCCc1cc(C(C)(C)C)c(O)c(C(C)(C)C)c1`, the solubility in data set [1] was < 100 µg/mL.

Regarding `Cc1c(C)c2c(c(C)c1O)CC(CCn1ccc(=O)c(O)c1C)O2` (stereo not given), in data set [1], the solubility was < 100 µg/mL.

For `Cc1c(C)c2c(c(C)c1O)CCC(C)(CNCCCCn1ccc(=O)c(O)c1C)O2` (stereo not given), the solubility in data set [1] is < 100 µg/mL.

Regarding `Cc1c(C)c2c(c(C)c1OC(=O)C(N)C(C)C)CC(CCn1ccc(=O)c(O)c1C)O2` (stereo not given), the solubility in data set [1] is > 20000 µg/mL.

With `Cc1c(O)c(=O)ccn1CCNCc1cc(C(C)(C)C)c(O)c(C(C)(C)C)c1`, the solubility in data set [2] is 10000 µg/mL.

Consider `Cc1c(C)c2c(c(C)c1OC(=O)c1ccc(N)cc1)CC(CCn1ccc(=O)c(O)c1C)O2` (stereo not given), for which the solubility in data set [1] is < 100 µg/mL.

For `Cc1c(C)c2c(c(C)c1OC(=O)CCN)CC(CCn1ccc(=O)c(O)c1C)O2` (stereo not given), the solubility in data set [1] is 10000 µg/mL (≈ 25 mM).

As to `CNCC(=O)Oc1c(C)c(C)c2c(c1C)CC(CCn1ccc(=O)c(O)c1C)O2` (stereo not given), the solubility in data set [1] is > 20000 µg/mL.

For `Cc1c(C)c2c(c(C)c1OC(=O)CN(C)C)CC(CCn1ccc(=O)c(O)c1C)O2` (stereo not given), in data set [1], the solubility was > 20000 µg/mL.

Take `Cc1c(OC(=O)c2ccc(N)cc2)c(=O)ccn1CCCc1cc(C(C)(C)C)c(O)c(C(C)(C)C)c1`: the solubility in data set [1] is < 100 µg/mL.

Take `Cc1c(C)c2c(c(C)c1OC(=O)CCCN)CC(CCn1ccc(=O)c(O)c1C)O2` (stereo not given): the solubility in data set [1] was found to be 10000 µg/mL (≈ 24.1 mM).

As for `Cc1c(O)c(=O)ccn1CCCc1cc(C(C)(C)C)c(O)c(C(C)(C)C)c1`, the solubility in data set [1] is < 100 µg/mL.

Regarding `Cc1c(OC(=O)CCN)c(=O)ccn1CCCc1cc(C(C)(C)C)c(O)c(C(C)(C)C)c1`, the solubility in data set [1] is > 20000 µg/mL.

Take `CC(=O)Oc1c(C)n(CCCc2cc(C(C)(C)C)c(O)c(C(C)(C)C)c2)ccc1=O`: in data set [1], the solubility is < 100 µg/mL.

Consider `Cc1c(O)c(=O)ccn1CCOCCOCCOCCOCCOCCCc1cc(C(C)(C)C)c(O)c(C(C)(C)C)c1`, for which, in data set [1], the solubility is < 100 µg/mL.
